“Also recorded” adds a separate entry of the source. Read-outs that look alike come from different tables or passages of the source. Peptide text beside a SMILES is read from it.
Tests used:
[1] = tested on: HIV-1IIIB (subtype B, X4)
Protocol: (§1) In brief, 1×10^4 MT-2 cells were infected with HIV-1IIIB in 200 μl RPMI 1640 medium containing 10% FBS in the presence or absence of testing compounds at graded concentrations overnight. Then the culture supernatants were removed and fresh media containing no testing compounds were added. On the fourth day post-infection, 100 μl of culture supernatants were collected from each well, mixed with equal volumes of 5% Triton X-100 and assayed for p24 antigen, which was quantitated by ELISA. Briefly, wells of polystyrene plates (Immulon 1B, Dynex Technology, Chantilly, Va.) were coated with HIV immunoglobulin (HIVIG), which was prepared from plasma of HIV-seropositive donors with high neutralizing titers against HIV-1IIIB, in 0.085 M carbonate-bicarbonate buffer (pH 9.6) at 4° C. overnight, followed by washes with washing buffer (0.01M PBS containing 0.05% Tween-20) and blocking with PBS containing 1% dry fat-free milk (Bio-Rad Inc., Hercules, Calif.). Virus lysates were added to the wells and incubated at 37° C. for 1 h. […] Reactions were terminated by addition of 1N H2SO4. Absorbance at 450 nm was recorded in an ELISA reader (Ultra 386, TECAN, Research Triangle Park, NC). Recombinant protein p24 purchased from US Biological (Swampscott, Mass.) was included for establishing standard dose response curves. […] The percentage of inhibition of p24 production was calculated as previously described.

CHR-peptide C34 = CHR-peptide C34 (Human immunodeficiency virus type 1 group M subtype B, UniProt P04578); type: binding, HIV-1; conditions: CD spectroscopy
Chain of CHR-peptide C34 (P04578 628-661): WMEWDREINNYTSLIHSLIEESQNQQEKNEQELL
Protocol: (§2) All the N-peptides were diluted in ddH2O (pH 7.0) and all the C-peptides or the mixture of the N- and C-peptides were diluted in 50 mM sodium phosphate and 150 mM NaCl (PBS, pH 7.2) to a final concentration of 10 μM. The individual peptides and their mixtures were incubated in a 37° C. water bath for 0.5 h before testing. […] The α-helicity was calculated from the CD signal by dividing the mean residue ellipticity at 222 nm by the value expected for 100% helix formation (i.e., 33,000° cm^2 dmol^−1) according to previous studies. Thermal denaturation of the samples was monitored at 222 nm by applying a temperature gradient from 20° C. to 98° C. with a 2-degree interval, an equilibration time of 1.5 min, and an averaging time of 60 s. The midpoint of the thermal unfolding transition (Tm) values was calculated using Jasco software utilities as described previously.

[2] = tested on: HIV-1IIIB-mediated cell-cell fusion
Protocol: Briefly, H9/HIV-1IIIB cells were pre-labeled with a fluorescent dye, Calcein AM (Molecular Probes, Inc., Eugene, Oreg.), and incubated with a testing compound at a graded concentration at 37° C. for 30 min in a 96-well cell culture plate. Then the CD4^+ MT-2 cells were added to the H9/HIV-1IIIB cells at a ratio of 10:1, followed by incubation at 37° C. for 2 hrs. The fused and unfused Calcein-labeled HIV-1-infected cells were counted under an inverted fluorescence microscope (Zeiss, Germany) with an eyepiece micrometer disc. The percent inhibition of cell fusion by a compound and the EC50 and EC90 values were calculated using the software CalcuSyn.

[3] = SDS-PAGE analysis of trimer stability; type: physicochemical; conditions: 2% SDS sample buffer, room temperature or boiled 5 min
Protocol: Purified N36Fd and N28Fd were analyzed by SDS-PAGE. […] The sample was boiled for 5 min or kept at room temperature (RT) before loading onto a 10-20% Tricine-Glycine gel (Invitrogen). The electrophoresis was conducted in SDS-PAGE running buffer with 125V constant voltage at 4° C. The gels were stained with SimplyBlue SafeStain (Invitrogen).

[4] = tested on: HIV-1 Bal (subtype B, R5); type: cell-based
Protocol: The cells were harvested and lysed on the fourth day post-infection with 50p1 of lysing reagent. The luciferase activity was analyzed using a luciferase kit (Promega, Madison, Wis.) and a luminometer (Ultra 386) according to the manufacturer's instructions. The percent inhibition of luciferase activity was calculated.

[5] = CD spectroscopy of secondary structure (α-helicity) of the individual peptides; type: physicochemical; conditions: CD at 222 nm, 10 μM, ddH2O pH 7.0; spectrum of free Fd subtracted
Protocol: as §2

Proteinase K = molecular target: T1, Proteinase K (Parengyodontium album, UniProt P06873); assay: Proteinase K digestion, residual peptide by direct ELISA; type: in vitro ADME; conditions: 1 μU/ml Proteinase K in PBS, 37° C.
T1 construct: purchased Sigma
T1 sequence (P06873 106-384): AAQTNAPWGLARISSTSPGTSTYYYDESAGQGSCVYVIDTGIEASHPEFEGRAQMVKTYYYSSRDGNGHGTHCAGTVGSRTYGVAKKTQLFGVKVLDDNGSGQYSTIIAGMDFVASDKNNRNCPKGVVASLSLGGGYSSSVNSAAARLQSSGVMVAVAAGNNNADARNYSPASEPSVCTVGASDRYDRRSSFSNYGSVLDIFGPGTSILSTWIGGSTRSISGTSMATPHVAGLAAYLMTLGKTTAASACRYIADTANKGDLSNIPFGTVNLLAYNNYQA
Text: T20 was used as a control. […] Samples were collected at different times and centrifuged immediately.

HIV-1NL4-3(36G) N42S = conditions: T20-sensitive
Protocol: (§3) In brief, 1×10^4 MT-2 cells were infected with HIV-1IIIB in 200 μl RPMI 1640 medium containing 10% FBS in the presence or absence of testing compounds at graded concentrations overnight. Then the culture supernatants were removed and fresh media containing no testing compounds were added. On the fourth day post-infection, 100 μl of culture supernatants were collected from each well, mixed with equal volumes of 5% Triton X-100 and assayed for p24 antigen, which was quantitated by ELISA. Briefly, wells of polystyrene plates (Immulon 1B, Dynex Technology, Chantilly, Va.) were coated with HIV immunoglobulin (HIVIG), which was prepared from plasma of HIV-seropositive donors with high neutralizing titers against HIV-1IIIB, in 0.085 M carbonate-bicarbonate buffer (pH 9.6) at 4° C. overnight, followed by washes with washing buffer (0.01M PBS containing 0.05% Tween-20) and blocking with PBS containing 1% dry fat-free milk (Bio-Rad Inc., Hercules, Calif.). Virus lysates were added to the wells and incubated at 37° C. for 1 h. […] Reactions were terminated by addition of 1N H2SO4. Absorbance at 450 nm was recorded in an ELISA reader (Ultra 386, TECAN, Research Triangle Park, NC). Recombinant protein p24 purchased from US Biological (Swampscott, Mass.) was included for establishing standard dose response curves. Each sample was tested in triplicate. The percentage of inhibition of p24 production was calculated as previously described.
(§4) Mutations in the NHR region of HIV-1 virus NL4-3 cause genetic resistance to T20.

[6] = tested on: HIV-1NL4-3(36G) V38E/N42S; conditions: T20-resistant
Protocol: as §3, §4

[7] = tested on: HIV-1NL4-3(36G) V38A/N42D; conditions: T20-resistant
Protocol: as §3, §4

[8] = tested on: HIV-1NL4-3(36G) N42T/N43K; conditions: T20-resistant
Protocol: as §3, §4

HIV-1IIIB = assay: Proteinase K digestion, remaining antiviral activity against HIV-1IIIB infection; conditions: 1 μU/ml Proteinase K in PBS, 37° C., 3 hrs
Protocol: as §1

[9] = tested on: HIV-1 93IN101 (subtype C, R5); type: cell-based
Protocol: For inhibition of infection by the primary HIV-1 isolate 93IN101 (subtype C, R5), the peripheral blood mononuclear cells (PBMCs) were isolated from the blood of healthy donors using a standard density gradient (Histopaque-1077, Sigma) centrifugation. After incubation at 37° C. for 2 h, the nonadherent cells were collected and resuspended at 5×10^5/ml in RPMI medium 1640 containing 10% FBS, 5 μg of phytohemagglutinin (PHA)/ml, and 100 U of interleukin-2/ml, followed by incubation at 37° C. for 3 days. The PHA-stimulated cells were infected with the primary HIV-1 isolate at a multiplicity of infection (MOI) of 0.01 in the absence or presence of N-Fd peptides at graded concentrations. The supernatants were collected on the 7th day post-infection and tested for p24 antigen by ELISA.

HIV-1-mediated fusion = conditions: background statement; cited from earlier work

Row | Molecule | IC50 ([1]; 1IIIB (subtype B, X4)) [nM] | complex formation with C34 (CHR-peptide C34) | IC50 ([1]; read-out: IC50, inhibition of HIV-1IIIB replication (p24), MT-2 cells, day 4 post-infection) [nM] | fold more potent than the free N-peptide in inhibiting cell-cell fusion ([2]; N36Fd vs N36, N28Fd vs N28) [fold] | IC50 ([2]; read-out: IC50, inhibition of HIV-1-induced cell-cell fusion, H9/HIV-1IIIB + MT-2 cells, 2 hrs) [nM] | trimer stability in SDS-PAGE [3] | IC50 ([4]; TZM-bl cells, luciferase, read-out: IC50 against infection by HIV-1 Bal) [nM] | α-helicity of the N36 or N28 portion in N36Fd or N28Fd [5] [%] | residual amount, % of original, detected by ELISA (Proteinase K; 3 hrs) [%] | IC50 (HIV-1NL4-3(36G) N42S) [nM] | IC50 [6] [nM] | IC50 [7] [nM] | IC50 [8] [nM] | remaining antiviral activity against HIV-1IIIB infection, % of original (HIV-1IIIB) | IC50 ([9]; PHA-stimulated PBMCs, p24 on day 7, read-out: IC50 against infection by HIV-1 93IN101) [nM] | IC50 ([4]; Bal (subtype B, R5)) [nM] | inhibition of HIV-1-mediated fusion (HIV-1-mediated fusion) | remaining at 3 h (Proteinase K; read-out: residual amount, % of original, detected by ELISA) [%] | IC50 ([9]; 93IN101 (subtype C, R5, 2 h)) [nM]
1 | CC[C@H](C)[C@H](N)C(=O)N[C@@H](CCC(=O)O)C(=O)N[C@@H](C)C(=O)N[C@@H](CCC(N)=O)C(=O)N[C@@H](CCC(N)=O)C(=O)N[C@@H](Cc1c[nH]cn1)C(=O)N[C@@H](CC(C)C)C(=O)N[C@@H](CC(C)C)C(=O)N[C@@H](CCC(N)=O)C(=O)N[C@@H](CC(C)C)C(=O)N[C@H](C(=O)N[C@H](C(=O)N[C@@H](Cc1c[nH]c2ccccc12)C(=O)NCC(=O)N[C@H](C(=O)N[C@@H](CCCCN)C(=O)N[C@@H](CCC(N)=O)C(=O)N[C@@H](CC(C)C)C(=O)N[C@@H](CCC(N)=O)C(=O)N[C@@H](C)C(=O)N[C@@H](CCCNC(=N)N)C(=O)N[C@H](C(=O)N[C@@H](CC(C)C)C(=O)N[C@@H](C)C(=O)N[C@H](C(=O)N[C@@H](CCC(=O)O)C(=O)N[C@@H](CCCNC(=N)N)C(=O)N[C@@H](Cc1ccc(O)cc1)C(=O)O)C(C)C)[C@@H](C)CC)[C@@H](C)CC)C(C)C)[C@@H](C)O [N28] (H-IEAQQHLLQLTVWGIKQLQARILAVERY-OH; N-terminus and C-terminus assumed) | > 3000 | could not form a complex with C34 | – | – | – | – | – | – | – | – | – | – | – | – | – | – | – | – | –
2 | IEAQQHLLQLTVWGIKQLQARILAVERYGYIPEAPRDGQAYVRKDGEWVLLSTFL [N28Fd] | – | – | 39 | > 138 | 21 | SDS-resistant but heat-sensitive trimer; also recorded: more stable than N36Fd under SDS conditions | 9.8 | 30.9 | 84 | 26.95 ± 0.02 | 46.4 ± 4.49 | 29 ± 0.82 | 30.6 ± 6.07 | 97% | 1.27 | – | – | – | –
3 | enfuvirtide | – | – | – | – | – | – | – | – | – | 30 | 1390 | 2300 | 374 | completely lost its anti-HIV-1 activity | – | 3.4 | low nanomolar level | 17 | 1.75

— US9724383B2, “Stabilized trimeric HIV-1 GP41 fusion inhibitor polypeptides comprising the N-terminal heptad repeat (NHR) and foldon (FD) trimerization motif” (New York Blood Center, Inc., priority 2009, dated 2017)
